After the bases stand the sugars from the 5' end (letter, count) and the backbone: PS all phosphorothioate, else s phosphorothioate and o phosphodiester by linkage. Methylation of C is not given here. e = 2'-O-(2-methoxyethyl) (MOE); k = constrained ethyl (cEt); d = 2'-deoxy (DNA)
Biological target: APOL1
Conditions: ASO

Sequence | target mRNA inhibition (A431, 2 µM) [%] | target mRNA inhibition (A431, 0.0625 µM) [%] | target mRNA inhibition (A431, 0.25 µM) [%] | target mRNA inhibition (A431, 1 µM) [%] | target mRNA inhibition (A431, 0.0156 µM) [%]
GTGAGTATTGTTTTTG (sugars k2 d4 e3 k2 d5, PS) | 92 | – | – | – | –
GCTTTAAACTCAGGTG (sugars k3 d4 k3 e1 d5, PS) | 74 | – | – | – | –
AGTATTGCCAGCTAAG (sugars k4 d9 k3, PS) | – | 63 | 89 | 97 | –
GTTCTAACTCTTGGGC (sugars kkddddkekekkdddd, PS) | 52 | – | – | – | –
GGCATTCAGAATTTCC (sugars k2 d4 e3 k2 d5, PS) | 97 | – | – | – | –
CACTTTATACCAGTGT (sugars kkkddddkekekdddd, PS) | 11 | – | – | – | –
GCTTTAAACTCAGGTG (sugars kkdddddkekeddddd, PS) | 91 | 35 | 67 | 85 | 6
TCTCATGGTACAGGAG (sugars kddddkekekeddddd, PS) | 55 | – | – | – | –
GAAGATTGGCTCTGGC (sugars kkkddddkdkdkdddd, PS) | 51 | – | – | – | –
ATTCTCATGGTACAGG (sugars kkddddkekekkdddd, PS) | 34 | – | – | – | –
TGAAGATTGGCTCTGG (sugars kkkddddkekeddddd, PS) | 54 | – | – | – | –
TACCGGGTAAGAGCGA (sugars k4 d9 k3, PS) | – | 32 | 64 | 78 | –
GTATTGCCAGCTAAGG (sugars kddddkekekeddddd, PS) | 70 | – | – | – | –
GTTATGAAATTATTGG (sugars kddddkekekeddddd, PS) | 77 | – | – | – | –
TTATATTTGATCCTCA (sugars kkdddddkekeddddd, PS) | 96 | 38 | 74 | 92 | 7
TTGGTTCAAAAGCAGC (sugars k4 d9 k3, PS) | – | 72 | 87 | 92 | –

Sequence | target mRNA inhibition (A431, 2 µM) [%] | target mRNA inhibition (A431, 0.0625 µM) [%] | target mRNA inhibition (A431, 0.25 µM) [%] | target mRNA inhibition (A431, 1 µM) [%] | target mRNA inhibition (A431, 0.0156 µM) [%]
GTTATATTTGATCCTC (sugars k2 d4 e3 k2 d5, PS) | 93 | 31 | 67 | 89 | 2
GGCATTCAGAATTTCC (sugars kkddddekekeddddd, PS) | 93 | – | – | – | –
CAAGTCAGTACAGAGC (sugars k4 d9 k3, PS) | – | 57 | 82 | 94 | –
TCAGGTGACTACATTT (sugars k4 d9 k3, PS) | – | 47 | 67 | 84 | –
GTTATGAAATTATTGG (sugars kkddddkekekkdddd, PS) | 86 | – | – | – | –
GTGTATTTCTTGATGT (sugars kkddddkekekddddd, PS) | 95 | – | – | – | –
CGTCAATATATTCTTT (sugars kkddddkdkdkddddd, PS) | 91 | – | – | – | –
GTGTGAGTTGGTAAGT (sugars k4 d9 k3, PS) | – | 54 | 85 | 95 | –
GGCAGTTTTGTAAGTG (sugars kkddddkekekddddd, PS) | 65 | – | – | – | –
ATATCAGATGGGTACT (sugars k2 d4 e3 k2 d5, PS) | 52 | – | – | – | –
GGAATTATGGAATTGC (sugars kkddddekekeddddd, PS) | 97 | 62 | 89 | 97 | 23
TTATGAAATTATTGGT (sugars kkkddddkekekdddd, PS) | 86 | – | – | – | –
ATCAGATGGGTACTTC (sugars kkddddekekeddddd, PS) | 73 | – | – | – | –
AGTATTGTTTTTGTGG (sugars k3 d4 k3 e1 d5, PS) | 89 | – | – | – | –
AATGAACGCAATGCTG (sugars k4 d9 k3, PS) | – | 35 | 50 | 75 | –
CGTGTTATATTTGATC (sugars kkkddddkekekdddd, PS) | 82 | – | – | – | –

— the OligoGym collection
